In patent US8680012B2, “4-phenyl-pyrane-3,5-diones,4-phenyl-thiopyrane-3,6-diones and cyclohexanetriones as novel herbicides” (Syngenta Crop Protection LLC, priority 2006, dated 2014):

These compounds were tested on Amaranthus retroflexus (AMARE) (assay: Example B post-emergence herbicidal activity, glasshouse pot test). Settings: 312 h, rate 250 g/ha, evaluated after 13 days, read-out: Post-emergence activity AMARE (100=total damage to plant; 0=no damage to plant).
Format: in vivo
Outline: (§1)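 One day (pre) or eight days (post) after sowing, pots received a spray of test compound formulated in acetone/water 50:50 with 0.5% Tween 20; plants were then kept under controlled glasshouse conditions with watering twice daily and assessed for damage (0–100) at 13 days.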

| Compound | pest or weed control at 250 g/ha [%] |
| --- | --- |
| CCc1ccc(-c2ccc(Cl)c(F)c2F)cc1C1=C(O)C(C)(C)OC(C)(C)C1=O [Compound A-153] | 30 |
| CCc1ccc(-c2ccc(Cl)c(C(F)(F)F)c2F)cc1C1=C(O)C(C)(C)OC(C)(C)C1=O [Compound A-154] | 0 |
| CCc1ccc(-c2ccc(Cl)c(Cl)c2F)cc1C1=C(O)C(C)(C)OC(C)(C)C1=O [Compound A-155] | 40 |
| Cc1ccc(-c2ccc(Cl)cc2Cl)cc1C1=C(O)C(C)(C)SC(C)(C)C1=O [Compound C-6] | 40 |

What follows are compounds tested on Setaria faberi (SETFA) in the same assay as above. Settings: 312 h, rate 250 g/ha, evaluated after 13 days, read-out: Post-emergence activity SETFA (100=total damage to plant; 0=no damage to plant).
Format: in vivo
Outline: as §1

| Compound | pest or weed control at 250 g/ha [%] |
| --- | --- |
| CCc1ccc(-c2ccc(Cl)c(F)c2F)cc1C1=C(O)C(C)(C)OC(C)(C)C1=O [Compound A-153] | 100 |
| CCc1ccc(-c2ccc(Cl)c(C(F)(F)F)c2F)cc1C1=C(O)C(C)(C)OC(C)(C)C1=O [Compound A-154] | 100 |
| CCc1ccc(-c2ccc(Cl)c(Cl)c2F)cc1C1=C(O)C(C)(C)OC(C)(C)C1=O [Compound A-155] | 100 |
| Cc1ccc(-c2ccc(Cl)cc2Cl)cc1C1=C(O)C(C)(C)SC(C)(C)C1=O [Compound C-6] | 30 |

What follows are compounds tested on Echinochloa crus-galli (ECHCG) in the same assay as above. Settings: 312 h, rate 250 g/ha, evaluated after 13 days, read-out: Post-emergence activity ECHCG (100=total damage to plant; 0=no damage to plant).
Format: in vivo
Outline: as §1

| Compound | pest or weed control at 250 g/ha [%] |
| --- | --- |
| CCc1ccc(-c2ccc(Cl)c(F)c2F)cc1C1=C(O)C(C)(C)OC(C)(C)C1=O [Compound A-153] | 100 |
| CCc1ccc(-c2ccc(Cl)c(C(F)(F)F)c2F)cc1C1=C(O)C(C)(C)OC(C)(C)C1=O [Compound A-154] | 100 |
| CCc1ccc(-c2ccc(Cl)c(Cl)c2F)cc1C1=C(O)C(C)(C)OC(C)(C)C1=O [Compound A-155] | 100 |
| Cc1ccc(-c2ccc(Cl)cc2Cl)cc1C1=C(O)C(C)(C)SC(C)(C)C1=O [Compound C-6] | 60 |

What follows are compounds tested on Avena fatua (AVEFA) in the same assay as above. Settings: 312 h, rate 250 g/ha, evaluated after 13 days, read-out: Post-emergence activity AVEFA (100=total damage to plant; 0=no damage to plant).
Format: in vivo
Outline: as §1

| Compound | pest or weed control at 250 g/ha [%] |
| --- | --- |
| CCc1ccc(-c2ccc(Cl)c(F)c2F)cc1C1=C(O)C(C)(C)OC(C)(C)C1=O [Compound A-153] | 100 |
| CCc1ccc(-c2ccc(Cl)c(C(F)(F)F)c2F)cc1C1=C(O)C(C)(C)OC(C)(C)C1=O [Compound A-154] | 70 |
| CCc1ccc(-c2ccc(Cl)c(Cl)c2F)cc1C1=C(O)C(C)(C)OC(C)(C)C1=O [Compound A-155] | 90 |
| Cc1ccc(-c2ccc(Cl)cc2Cl)cc1C1=C(O)C(C)(C)SC(C)(C)C1=O [Compound C-6] | 0 |

What follows are compounds tested on Alopecurus myosuroides (ALOMY) in the same assay as above. Settings: 312 h, rate 250 g/ha, evaluated after 13 days, read-out: Post-emergence activity ALOMY (100=total damage to plant; 0=no damage to plant).
Format: in vivo
Outline: as §1

| Compound | pest or weed control at 250 g/ha [%] |
| --- | --- |
| CCc1ccc(-c2ccc(Cl)c(F)c2F)cc1C1=C(O)C(C)(C)OC(C)(C)C1=O [Compound A-153] | 100 |
| CCc1ccc(-c2ccc(Cl)c(C(F)(F)F)c2F)cc1C1=C(O)C(C)(C)OC(C)(C)C1=O [Compound A-154] | 100 |
| CCc1ccc(-c2ccc(Cl)c(Cl)c2F)cc1C1=C(O)C(C)(C)OC(C)(C)C1=O [Compound A-155] | 100 |
| Cc1ccc(-c2ccc(Cl)cc2Cl)cc1C1=C(O)C(C)(C)SC(C)(C)C1=O [Compound C-6] | 20 |

The compounds below were run on Amaranthus retroflexus (AMARE) (assay: Example B pre-emergence herbicidal activity, glasshouse pot test). Settings: 312 h, rate 250 g/ha, evaluated after 13 days, read-out: Pre-emergence activity AMARE (100=total damage to plant; 0=no damage to plant).
Format: in vivo
Outline: as §1

| Compound | pest or weed control at 250 g/ha [%] |
| --- | --- |
| CCc1ccc(-c2ccc(Cl)c(F)c2F)cc1C1=C(O)C(C)(C)OC(C)(C)C1=O [Compound A-153] | 0 |
| CCc1ccc(-c2ccc(Cl)c(C(F)(F)F)c2F)cc1C1=C(O)C(C)(C)OC(C)(C)C1=O [Compound A-154] | 0 |
| CCc1ccc(-c2ccc(Cl)c(Cl)c2F)cc1C1=C(O)C(C)(C)OC(C)(C)C1=O [Compound A-155] | 0 |
| Cc1ccc(-c2ccc(Cl)cc2Cl)cc1C1=C(O)C(C)(C)SC(C)(C)C1=O [Compound C-6] | 0 |

The compounds below were run on Setaria faberi (SETFA) in the same assay as above. Settings: 312 h, rate 250 g/ha, evaluated after 13 days, read-out: Pre-emergence activity SETFA (100=total damage to plant; 0=no damage to plant).
Format: in vivo
Outline: as §1

| Compound | pest or weed control at 250 g/ha [%] |
| --- | --- |
| CCc1ccc(-c2ccc(Cl)c(F)c2F)cc1C1=C(O)C(C)(C)OC(C)(C)C1=O [Compound A-153] | 100 |
| CCc1ccc(-c2ccc(Cl)c(C(F)(F)F)c2F)cc1C1=C(O)C(C)(C)OC(C)(C)C1=O [Compound A-154] | 90 |
| CCc1ccc(-c2ccc(Cl)c(Cl)c2F)cc1C1=C(O)C(C)(C)OC(C)(C)C1=O [Compound A-155] | 100 |
| Cc1ccc(-c2ccc(Cl)cc2Cl)cc1C1=C(O)C(C)(C)SC(C)(C)C1=O [Compound C-6] | 0 |

What follows are compounds tested on Echinochloa crus-galli (ECHCG) in the same assay as above. Settings: 312 h, rate 250 g/ha, evaluated after 13 days, read-out: Pre-emergence activity ECHCG (100=total damage to plant; 0=no damage to plant).
Format: in vivo
Outline: as §1

| Compound | pest or weed control at 250 g/ha [%] |
| --- | --- |
| CCc1ccc(-c2ccc(Cl)c(F)c2F)cc1C1=C(O)C(C)(C)OC(C)(C)C1=O [Compound A-153] | 100 |
| CCc1ccc(-c2ccc(Cl)c(C(F)(F)F)c2F)cc1C1=C(O)C(C)(C)OC(C)(C)C1=O [Compound A-154] | 100 |
| CCc1ccc(-c2ccc(Cl)c(Cl)c2F)cc1C1=C(O)C(C)(C)OC(C)(C)C1=O [Compound A-155] | 100 |
| Cc1ccc(-c2ccc(Cl)cc2Cl)cc1C1=C(O)C(C)(C)SC(C)(C)C1=O [Compound C-6] | 0 |

Each compound was assayed on Avena fatua (AVEFA) in the same assay as above. Settings: 312 h, rate 250 g/ha, evaluated after 13 days, read-out: Pre-emergence activity AVEFA (100=total damage to plant; 0=no damage to plant).
Format: in vivo
Outline: as §1

| Compound | pest or weed control at 250 g/ha [%] |
| --- | --- |
| CCc1ccc(-c2ccc(Cl)c(F)c2F)cc1C1=C(O)C(C)(C)OC(C)(C)C1=O [Compound A-153] | 50 |
| CCc1ccc(-c2ccc(Cl)c(C(F)(F)F)c2F)cc1C1=C(O)C(C)(C)OC(C)(C)C1=O [Compound A-154] | 20 |
| CCc1ccc(-c2ccc(Cl)c(Cl)c2F)cc1C1=C(O)C(C)(C)OC(C)(C)C1=O [Compound A-155] | 0 |
| Cc1ccc(-c2ccc(Cl)cc2Cl)cc1C1=C(O)C(C)(C)SC(C)(C)C1=O [Compound C-6] | 0 |

The compounds below were run on Alopecurus myosuroides (ALOMY) in the same assay as above. Settings: 312 h, rate 250 g/ha, evaluated after 13 days, read-out: Pre-emergence activity ALOMY (100=total damage to plant; 0=no damage to plant).
Format: in vivo
Outline: as §1

| Compound | pest or weed control at 250 g/ha [%] |
| --- | --- |
| CCc1ccc(-c2ccc(Cl)c(F)c2F)cc1C1=C(O)C(C)(C)OC(C)(C)C1=O [Compound A-153] | 60 |
| CCc1ccc(-c2ccc(Cl)c(C(F)(F)F)c2F)cc1C1=C(O)C(C)(C)OC(C)(C)C1=O [Compound A-154] | 50 |
| CCc1ccc(-c2ccc(Cl)c(Cl)c2F)cc1C1=C(O)C(C)(C)OC(C)(C)C1=O [Compound A-155] | 50 |
| Cc1ccc(-c2ccc(Cl)cc2Cl)cc1C1=C(O)C(C)(C)SC(C)(C)C1=O [Compound C-6] | 0 |
